Test results reported in US9481659B2, “Selective heterocyclic sphingosine 1 phosphate receptor modulators” (Celgene International II SÀRL, priority 2011, dated 2016).
pEC50: −log10 of the molar value.

Molecular target: S1P1/EDG1 (Homo sapiens, UniProt P21453)
Assay: S1P1 CRE-bla CHOK1 reporter assay, inhibition of Forskolin induced cAMP
Type: cell-based
Details: agonist activity range; S1P1 CRE-bla CHOK1 cells, 2 μM Forskolin; read-out: S1P1 ACTIVITY
Protocol: Generation of S1P1-Mediated Inhibition of cAMP Reporter Assay
A mammalian expression plasmid containing S1P1/EDG1 cloned into pcDNA3.1 was purchased from Missouri S&T cDNA Resource Centre. […] S1P1/pcDNA3.1 was transfected into the CRE-bla CHO K1 (Invitrogen) cell line, and stable single cell clones were selected using standard techniques.
S1P1 CRE-Bla CHOK1 Reporter Assay—Characterization of S1P1 Agonists
Cells were seeded into 384-well black wall/clear bottom plates at 10^4 cells/well/19.5 μl assay media (DMEM-phenol free, 0.5% charcoal/dextran stripped serum, 2 mM glutamine, 0.1 mM NEAA, 1 mM Na-Pyruvate, 25 mM Hepes) and incubated for 18 hrs at 37° C. in 5% CO2. Dose response curves (10-point) were generated in 10 mM Hepes, 0.1% Pluronic F127, in the presence of Forskolin. Cells were treated with 0.5 μl compound in the presence of 2 μM Forskolin for 4 hrs at 37° C. The FRET-based β-lactamase fluorescent substrate (LiveBLAzer™-FRET B/G Loading Kit CC4-AM; Invitrogen) was prepared according to manufacturer's directions, and incubated with cells for 2 hrs at room temperature.

S1P1/EDG1, sequence (P21453 whole entry): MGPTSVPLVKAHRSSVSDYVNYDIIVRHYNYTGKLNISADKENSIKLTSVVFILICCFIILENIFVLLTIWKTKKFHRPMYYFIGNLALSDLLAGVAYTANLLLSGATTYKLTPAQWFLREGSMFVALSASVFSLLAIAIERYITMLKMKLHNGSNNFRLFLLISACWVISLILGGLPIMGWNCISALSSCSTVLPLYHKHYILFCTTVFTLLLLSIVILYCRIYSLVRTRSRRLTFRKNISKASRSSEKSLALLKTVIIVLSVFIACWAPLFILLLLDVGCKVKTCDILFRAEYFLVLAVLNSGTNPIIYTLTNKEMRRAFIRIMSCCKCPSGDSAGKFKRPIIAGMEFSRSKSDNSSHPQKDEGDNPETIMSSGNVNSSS

CC(C)Oc1ccc(-c2nnc(-c3cccc4c3CCC[C@H]4NC(=O)CN(C)C)s2)cc1C#N [Compound 236]
pEC50: 8.30 to 9.30

COCC(=O)N[C@@H]1CCCc2c(-c3nnc(-c4ccc(OC(C)C)c(C#N)c4)s3)cccc21 [Compound 237]
pEC50: 9.30 to 10.30

CC(C)Oc1ccc(-c2nnc(-c3cccc4c3CCC[C@@H]4NC(=O)CN(C)C)s2)cc1C#N [Compound 238]
pEC50: 8.30 to 9.30

COCC(=O)N[C@H]1CCCc2c(-c3nnc(-c4ccc(OC(C)C)c(C#N)c4)s3)cccc21 [Compound 239]
pEC50: 8.30 to 9.30

COC(=O)N[C@H]1CCCc2c(-c3nnc(-c4ccc(OC(C)C)c(C#N)c4)s3)cccc21 [Compound 240]
pEC50: 9.30 to 10.30

CC(C)Oc1ccc(-c2nnc(-c3cccc4c3CCC[C@@H]4NC(=O)c3ccncc3)s2)cc1C#N [Compound 241]
pEC50: 8.30 to 9.30

CC(C)Oc1ccc(-c2nnc(-c3cccc4c3CCC[C@@H]4NC(=O)c3cccnc3)s2)cc1C#N [Compound 242]
pEC50: 8.30 to 9.30

CC(C)Oc1ccc(-c2nnc(-c3cccc4c3CCC[C@@H]4NC(=O)c3ccccn3)s2)cc1C#N [Compound 243]
pEC50: < 8.30

COC(=O)N[C@@H]1CCCc2c(-c3nnc(-c4ccc(OC(C)C)c(C#N)c4)s3)cccc21 [Compound 244]
pEC50: 8.30 to 9.30

CC(C)Oc1ccc(-c2nnc(-c3cccc4c3CCC[C@H]4NC(=O)CO)s2)cc1C#N [Compound 245, (R)—N-(5-(5-(3-cyano-4-isopropoxyphenyl)-1,3,4-thiadiazol-2-yl)-1,2,3,4-tetrahydronaphthalen-1-yl)-2-hydroxyacetamide]
pEC50: 9.30 to 10.30

CC(C)Oc1ccc(-c2nnc(-c3cccc4c3CCC[C@@H]4NC(=O)CO)s2)cc1C#N [Compound 246, (S)—N-(5-(5-(3-cyano-4-isopropoxyphenyl)-1,3,4-thiadiazol-2-yl)-1,2,3,4-tetrahydronaphthalen-1-yl)-2-hydroxyacetamide]
pEC50: 9.30 to 10.30

CC(C)Oc1ccc(-c2nnc(-c3cccc4c3CCC[C@H]4NC(=O)[C@H](N)CO)s2)cc1C#N [Compound 247]
pEC50: 8.30 to 9.30

CC(C)Oc1ccc(-c2nnc(-c3cccc4c3CCC[C@H]4NC(=O)[C@@H](N)CO)s2)cc1C#N [Compound 248]
pEC50: 9.30 to 10.30

CC(C)Oc1ccc(-c2nnc(-c3cccc4c3CCC[C@H]4NC(=O)CCN)s2)cc1C#N [Compound 249]
pEC50: 8.30 to 9.30

CC(C)Oc1ccc(-c2nnc(-c3cccc4c3CCC[C@H]4NC(=O)CN)s2)cc1C#N [Compound 250]
pEC50: 8.30 to 9.30

CNCC(=O)N[C@@H]1CCCc2c(-c3nnc(-c4ccc(OC(C)C)c(C#N)c4)s3)cccc21 [Compound 251]
pEC50: 8.30 to 9.30

CNCC(=O)N[C@H]1CCCc2c(-c3nnc(-c4ccc(OC(C)C)c(C#N)c4)s3)cccc21 [Compound 252]
pEC50: 9.30 to 10.30

CC(C)Oc1ccc(-c2nnc(-c3cccc4c3CCC[C@@H]4NC(=O)CCN)s2)cc1C#N [Compound 253]
pEC50: 8.30 to 9.30

CC(C)Oc1ccc(-c2nnc(-c3cccc4c3CCC[C@@H]4NC(=O)CCNS(C)(=O)=O)s2)cc1C#N [Compound 254]
pEC50: 8.30 to 9.30

CC(C)Oc1ccc(-c2nnc(-c3cccc4c3CCC[C@@H]4NC(=O)CCO)s2)cc1C#N [Compound 255]
pEC50: 9.30 to 10.30

CC(C)Oc1ccc(-c2nnc(-c3cccc4c3CCC[C@@H]4NC(=O)CCN(C)C)s2)cc1C#N [Compound 256, (S)—N-(5-(5-(3-cyano-4-isopropoxyphenyl)-1,3,4-thiadiazol-2-yl)-1,2,3,4-tetrahydronaphthalen-1-yl)-3-(dimethylamino)propanamide]
pEC50: 8.30 to 9.30

CC(C)Oc1ccc(-c2nnc(-c3cccc4c3CCC[C@H]4NC(=O)CCN(C)C)s2)cc1C#N [Compound 257, (R)—N-(5-(5-(3-cyano-4-isopropoxyphenyl)-1,3,4-thiadiazol-2-yl)-1,2,3,4-tetrahydronaphthalen-1-yl)-3-(dimethylamino)propanamide]
pEC50: < 8.30

CC(C)Oc1ccc(-c2nnc(-c3cccc4c3CCC[C@H]4NC(=O)CCNS(C)(=O)=O)s2)cc1C#N [Compound 258]
pEC50: 8.30 to 9.30

CC(C)Oc1ccc(-c2nnc(-c3cccc4c3CCC[C@H]4NC(=O)CCO)s2)cc1C#N [Compound 259]
pEC50: 9.30 to 10.30

CNCCC(=O)N[C@@H]1CCCc2c(-c3nnc(-c4ccc(OC(C)C)c(C#N)c4)s3)cccc21 [Compound 260]
pEC50: 8.30 to 9.30

CC(C)Oc1ccc(-c2nnc(-c3cccc4c3CCC[C@H]4NCc3c[nH]cn3)s2)cc1C#N [Compound 261]
pEC50: < 8.30

CC(C)Oc1ccc(-c2nnc(-c3cccc4c3CCC[C@H]4NCc3ccncc3)s2)cc1C#N [Compound 262]
pEC50: 8.30 to 9.30

CC(C)Oc1ccc(-c2nnc(-c3cccc4c3CCC[C@H]4NCc3cccnc3)s2)cc1C#N [Compound 263, (R)-2-isopropoxy-5-(5-(5-((pyridin-3-ylmethyl)amino)-5,6,7,8-tetrahydronaphthalen-1-yl)-1,3,4-thiadiazol-2-yl)benzonitrile]
pEC50: 8.30 to 9.30

CC(C)Oc1ccc(-c2nnc(-c3cccc4c3CCC[C@H]4NCc3ccccn3)s2)cc1C#N [Compound 264]
pEC50: 8.30 to 9.30

CC(C)Oc1ccc(-c2nnc(-c3cccc4c3CCC[C@H]4NCc3ncc[nH]3)s2)cc1C#N [Compound 265]
pEC50: 8.30 to 9.30

CC(C)Oc1ccc(-c2nnc(-c3cccc4c3CCC[C@@H]4NCc3ncc[nH]3)s2)cc1C#N [Compound 266]
pEC50: 9.30 to 10.30

CC(C)Oc1ccc(-c2nnc(-c3cccc4c3CCC[C@@H]4NCc3cnc[nH]3)s2)cc1C#N [Compound 267]
pEC50: 8.30 to 9.30

CC(C)Oc1ccc(-c2nnc(-c3cccc4c3CCC[C@@H]4NCc3ncco3)s2)cc1C#N [Compound 268]
pEC50: 8.30 to 9.30

CC(C)Oc1ccc(-c2nnc(-c3cccc4c3CCC[C@@H]4NCc3cnco3)s2)cc1C#N [Compound 269]
pEC50: 8.30 to 9.30

CC(C)Oc1ccc(-c2nnc(-c3cccc4c3CCC[C@@H]4NCc3ccncc3)s2)cc1C#N [Compound 270]
pEC50: 8.30 to 9.30

CC(C)Oc1ccc(-c2nnc(-c3cccc4c3CCC[C@@H]4NCc3cccnc3)s2)cc1C#N [Compound 271, (S)-2-isopropoxy-5-(5-(5-((pyridin-3-ylmethyl)amino)-5,6,7,8-tetrahydronaphthalen-1-yl)-1,3,4-thiadiazol-2-yl)benzonitrile]
pEC50: 8.30 to 9.30

CC(C)Oc1ccc(-c2nnc(-c3cccc4c3CCC[C@@H]4NCc3ccccn3)s2)cc1C#N [Compound 272]
pEC50: 8.30 to 9.30

CC(C)Oc1ccc(-c2nnc(-c3cccc4c3CCC[C@H]4NCc3cnco3)s2)cc1C#N [Compound 273]
pEC50: 8.30 to 9.30

CC(C)Oc1ccc(-c2nnc(-c3cccc4c3CCC[C@H]4NCCN(C)C)s2)cc1C#N [Compound 274, (R)-5-(5-(5-((2-(dimethylamino)ethyl)amino)-5,6,7,8-tetrahydronaphthalen-1-yl)-1,3,4-thiadiazol-2-yl)-2-isopropoxybenzonitrile]
pEC50: 8.30 to 9.30

CC(C)Oc1ccc(-c2nnc(-c3cccc4c3CCC[C@H]4NS(N)(=O)=O)s2)cc1C#N [Compound 275, (R)—N-(5-(5-(3-cyano-4-isopropoxyphenyl)-1,3,4-thiadiazol-2-yl)-1,2,3,4-tetrahydronaphthalen-1-yl) sulfamide]
pEC50: 9.30 to 10.30

CC(C)Oc1ccc(-c2nnc(-c3cccc4c3CCC[C@@H]4NS(N)(=O)=O)s2)cc1C#N [Compound 276, (S)—N-(5-(5-(3-cyano-4-isopropoxyphenyl)-1,3,4-thiadiazol-2-yl)-1,2,3,4-tetrahydronaphthalen-1-yl)sulfamide]
pEC50: 9.30 to 10.30
